For series [1], the target named is T1, NR1-1a/NR2B NMDA receptor (Rattus norvegicus, UniProt P35439+Q00960).
T1 construct: expressed in transfected cells; host or cells: HEK293 cells (ATCC CRL1573)
In words: Patch-clamp inhibition of glutamate-evoked currents at recombinant NMDA receptors in transfected HEK293 cells. In kind it is cell-based. The method, boiled down: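 HEK293 cells co-transfected with rat NR1-1a/NR2B plus GFP were whole-cell patch-clamped 16-40 h post-transfection at −60 mV. Currents were evoked by 1 mmol·l^−1 glutamate with 10 μmol·l^−1 glycine in ECS pH 7.3, and steroid was co-applied in DMSO via fast perfusion. IC50 came from relative inhibition.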

The subject of series [2] is NMDA lesion of the dorsal hippocampus in rats. In words: Active allothetic place avoidance (AAPA) after bilateral excitotoxic NMDA lesion of dorsal hippocampus. In kind it is in vivo, rat Long-Evans strain. The note with it: memantine 5 mg/kg after NMDA lesion. The method, then: In the Experimental Part 2 were used adult (3 months old, 300-400 g) male rat Long-Evans strain. The animals come from herds Institute of Physiology ASCR. The rats were housed in clear plastic boxes with the same light cycle as in mice. Animals had free access to food and water. All experiments were carried out in the light of clay. All experiments were carried out in accordance with the Law on protection of animals against cruelty.
The anesthetized rats were used in operations isoflurane (3.5%, Baxter). To recall excitotoxic lesion of the dorsal hippocampus was applied 0.05 mol·l^−1 solution of NMDA (Sigma-Aldrich) in 0.4 mol·l^−1 phosphate buffer solution prepared by mixing 356 g Na2HPO4.12H2O (Mw358.14) in 4.2 l of distilled water and a solution of 62.4 g NaHPO4. 2H2O (Mw156.01) in 0.8 l of distilled water. The pH of the resulting solution of NMDA was adjusted to 7.4 with NaOH.
In this experiment, the neuroprotective effects were evaluated for amphiphilic steroid compounds. The procedure was performed according to Neuropharmacology 61, 61-68 (2011)
The rats were randomly divided into eleven groups. The control group included operated animals, which were injected by phosphate buffer […] into the hippocampus. In the second group, the animals had NMDA lesions of the hippocampus. The animals of the third group were applied clinically used NMDA antagonist memantine at a dose of 5 mg/kg after NMDA lesion. The other groups were administered the compounds at a dose of 1 mg/kg.
The test was performed in rotating arena with prohibited sector in the form of a circular sector (60°). If the rat entered the sector, its limbs received weak electrical impulse.
Test memory and spatial cognition in rats using AAPA was evaluated over four sessions, which are in healthy rats sufficient to achieve asymptotic level (Behay. Brain. Res. 189, 139-144 (2008)). To evaluate memory and spatial cognition was used data from the fourth session, and the number of entries into the forbidden sector and the maximum avoidance sector. […] After the experiment, the localization of the lesion was histologically verified.
Data were analyzed using the non parametric test of Maim Whitney criteria using the GraphPad. The difference was considered significant for p<0.05, for a non-significant tendency then for 0.05<p<0.075.

[3] abbreviates: HEK293, read-out: Mean % change ± SD.
Setting [4] is: calculated from relative steroid-induced inhibition, Hill's coefficient 1.2, read-out: IC50.

The source of these data is patent publication US10017535B2, “Amphiphilic compounds with neuroprotective properties” (USTAV ORGANICKE CHEMIE A BIOCHEMIE AV CR, v.v.i., priority 2014, dated 2018).

Where a name gives a salt, the structure may show the parent alone. Read-outs that look alike come from different tables or passages of the source.

The term IC50 denotes the concentration needed to halve the response being measured. The melting point is the temperature of the solid-liquid transition.

T1 sequence (Q00960 27-1482, other chains not shown): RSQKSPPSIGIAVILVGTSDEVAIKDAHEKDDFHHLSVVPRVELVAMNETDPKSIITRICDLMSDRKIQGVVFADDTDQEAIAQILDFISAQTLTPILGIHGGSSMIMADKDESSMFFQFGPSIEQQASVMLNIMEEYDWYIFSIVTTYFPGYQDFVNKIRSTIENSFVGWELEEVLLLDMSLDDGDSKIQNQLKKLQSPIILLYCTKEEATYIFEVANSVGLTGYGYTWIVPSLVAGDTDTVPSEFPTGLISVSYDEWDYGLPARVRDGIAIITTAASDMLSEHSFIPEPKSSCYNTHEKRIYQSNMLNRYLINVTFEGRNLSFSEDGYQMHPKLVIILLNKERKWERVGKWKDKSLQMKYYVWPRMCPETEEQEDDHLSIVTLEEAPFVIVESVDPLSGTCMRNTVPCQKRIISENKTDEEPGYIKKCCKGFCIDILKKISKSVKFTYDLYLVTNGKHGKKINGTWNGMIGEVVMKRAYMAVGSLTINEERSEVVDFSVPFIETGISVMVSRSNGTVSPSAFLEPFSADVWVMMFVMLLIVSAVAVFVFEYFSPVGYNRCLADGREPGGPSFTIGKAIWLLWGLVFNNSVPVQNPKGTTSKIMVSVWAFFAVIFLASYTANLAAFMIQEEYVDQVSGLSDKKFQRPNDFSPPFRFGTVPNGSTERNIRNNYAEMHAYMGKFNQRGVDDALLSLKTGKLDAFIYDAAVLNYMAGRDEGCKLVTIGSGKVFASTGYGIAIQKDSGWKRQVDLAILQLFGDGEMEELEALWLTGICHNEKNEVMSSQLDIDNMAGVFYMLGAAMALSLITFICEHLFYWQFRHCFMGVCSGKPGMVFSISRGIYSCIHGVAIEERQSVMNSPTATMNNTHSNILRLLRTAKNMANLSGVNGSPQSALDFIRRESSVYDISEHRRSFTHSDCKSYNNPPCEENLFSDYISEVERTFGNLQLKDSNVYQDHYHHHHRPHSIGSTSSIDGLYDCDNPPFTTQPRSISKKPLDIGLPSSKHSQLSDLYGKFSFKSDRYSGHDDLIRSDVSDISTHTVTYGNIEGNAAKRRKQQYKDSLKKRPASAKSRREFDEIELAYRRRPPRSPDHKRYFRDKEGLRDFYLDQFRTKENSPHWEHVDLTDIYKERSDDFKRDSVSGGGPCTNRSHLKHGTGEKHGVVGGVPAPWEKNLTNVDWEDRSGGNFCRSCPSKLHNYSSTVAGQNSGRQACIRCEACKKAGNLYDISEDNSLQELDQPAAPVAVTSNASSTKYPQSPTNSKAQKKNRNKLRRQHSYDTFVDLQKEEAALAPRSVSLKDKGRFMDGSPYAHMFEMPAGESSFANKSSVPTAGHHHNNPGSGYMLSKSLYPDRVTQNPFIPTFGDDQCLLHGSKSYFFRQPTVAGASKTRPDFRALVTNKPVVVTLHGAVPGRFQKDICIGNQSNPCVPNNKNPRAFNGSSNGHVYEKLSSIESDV

Consider `C=C(C)[C@H]1CC[C@H]2[C@@H]3CC[C@@H]4C[C@H](OC(=O)CC(=O)O)CC[C@]4(C)[C@H]3CC[C@]12C` [Compound 88, 3-(((3R,5R,8R,9S,10S,13S,14S,17R)-10,13-Dimethyl-17-(prop-1-en-2-yl)hexadecahydro-4H-cyclopenta[a]phenanthren-3-yl)oxy)-3-oxopropanoic acid], for which the melting point was in the range of 147.7 to 148.3 °C. Besides, the inhibition at 10 µM in series [1] (setting [3]) is 46 ± 0.9%. Further, the IC50 in series [1] (setting [4]) was 11.8 µM.

`C[C@@]12CCC[C@H]1[C@@H]1CC[C@@H]3C[C@H](NC(=O)CC(=O)O)CC[C@]3(C)[C@H]1CC2` [Compound 61] returned a melting point of 126 to 128 °C. Moreover, the IC50 in series [1] is 15.4 µM. In series [1] (setting [3]), the inhibition at 10 µM is 40 ± 5.7%.

`C[C@]12CC[C@@H](CC(=O)O)C[C@H]1CC[C@@H]1[C@@H]2CC[C@]2(C)C(=O)CC[C@@H]12` [Compound 74, 2-((3R,5R,8R,9S,10S,13S,14S)-10,13-Dimethyl-17-oxohexadecahydro-1H-cyclopenta[a]phenanthren-3-yl)acetic acid]: the melting point lay in the range of 130 to 133 °C. The inhibition at 50 µM in series [1] (setting [3]) is 58.6 ± 9.3%. Besides, in series [1] (setting [4]), the IC50 was 38.7 µM.

`C[C@H]1CC[C@H]2[C@@H]3CC[C@@H]4C[C@H](NC(=O)C(=O)[O-])CC[C@]4(C)[C@H]3CC[C@]12C.[Na+]` [Compound 138, Sodium 2-oxo-2-(((3R,5R,8S,9S,10S,13R,14S,17S)-10,13,17-trimethylhexadecahydro-1H-cyclopenta[a]phenanthren-3-yl)amino)acetate] displayed a melting point of 330 to 334.6 °C. Besides, in series [1] (setting [3]), the inhibition at 1 µM came to 17.5 ± 1.8%. Moreover, in series [1] (setting [4]), the IC50 is 3.7 µM.

`C[C@H]1CC[C@H]2[C@@H]3CC[C@@H]4C[C@H](NC(=O)CC(=O)O)CC[C@]4(C)[C@H]3CC[C@]12C` [Compound 140, 3-Oxo-3-(((3R,5R,8S,9S,10S,13R,14S,17S)-10,13,17-trimethylhexadecahydro-1H-cyclopenta[a]phenanthren-3-yl)amino)propanoic acid] showed a melting point of 147.8 to 149.4 °C. For the same compound, the inhibition at 1 µM in series [1] (setting [3]) was 17.8 ± 6.5%. Further, the IC50 in series [1] (setting [4]) was 3.9 µM.

On to `C[C@@]12CCC[C@H]1[C@@H]1CC[C@@H]3C[C@H](NC(=O)C(=O)O)CC[C@]3(C)[C@H]1CC2` [Compound 59, 2-(((3R,5R,8S,9S,10S,13S,14S)-10,13-Dimethylhexadecahydro-1H-cyclopenta[a]phenanthren-3-yl)amino)-2-oxoacetic acid], for which the melting point is 191 to 193 °C. The inhibition at 10 µM in series [1] (setting [3]) worked out at 32 ± 5%. In addition, in series [1] (setting [4]), the IC50 is 23.2 µM.

Compound `C[C@]12CC[C@@H](OS(=O)(=O)O)C[C@H]1CC[C@@H]1[C@@H]2CC[C@]2(C)[C@@H](I)CC[C@@H]12` (as salt: salt) [Compound 93, Pyridinium (3R,5R,8R,9S,10S,13S,14S,17S)-17-iodo-10,13-dimethylhexadecahydro-1H-cyclopenta[a]phenanthren-3-yl 3-sulfate] showed a melting point of 118 to 120 °C.

Compound `C[C@@]12CCCCC1[C@@H]1CC[C@@H]3C[C@H](OC(=O)CC(=O)O)CC[C@]3(C)[C@H]1CC2` (stereo partly drawn) [Compound 102, 3-(((2R,4aS,4bS,6aS,10bS,12aR)-4a,6a-Dimethyloctadecahydrochrysen-2-yl)oxy)-3-oxopropanoic acid] came in with a melting point of 145.3 to 147.2 °C.

Compound `CC[C@@H](C)C1CC[C@H]2[C@@H]3CC[C@@H]4C[C@H](NC(=O)CC(=O)O)CC[C@]4(C)[C@H]3CC[C@]12C` (stereo partly drawn) [Compound 149, 3-(((3R,5R,8R,9S,10S,13R,14S)-17-((R)-Sec-butyl)-10,13-dimethylhexadecahydro-1H-cyclopenta[a]phenanthren-3-yl)amino)-3-oxopropanoic acid] showed a melting point of 163 to 165 °C. The inhibition at 10 µM in series [1] (setting [3]) is 33.6 ± 6.1%. In series [1] (setting [4]), the IC50 was 18.3 µM.

`C=C1CC[C@H]2[C@@H]3CC[C@@H]4C[C@H](OC(=O)CCCCC(=O)O)CC[C@]4(C)[C@H]3CC[C@]12C` yielded a melting point of 100 to 102 °C.

`CC[C@@H](C)C1CC[C@H]2[C@@H]3CC[C@@H]4C[C@H](NC(=O)C(=O)[O-])CC[C@]4(C)[C@H]3CC[C@]12C.[Na+]` (stereo partly drawn) [Compound 148, Sodium 2-(((3R,5R,8R,9S,10S,13R,14S)-17-((R)-sec-butyl)-10,13-dimethylhexadecahydro-1H-cyclopenta[a]phenanthren-3-yl)amino)-2-oxoacetate]: the melting point was 182 to 184 °C (dec.). Moreover, the inhibition at 1 µM in series [1] (setting [3]) was determined as 7.3 ± 3%. Further, the IC50 in series [1] (setting [4]) was 9.4 µM.

As to `CC12CC3CC(C)(C1)CC(N)(C3)C2` [memantine, reference compound], in series [2], the “maximum time avoidance, AAPA” value is on record as “tendency to increase” and the “number of entries into the forbidden sector, AAPA” value is “reduced number of entries”.

In turn, `C=C1CC[C@H]2[C@@H]3CC[C@@H]4C[C@H](OC(=O)C[N+](C)(C)C)CC[C@]4(C)[C@H]3CC[C@]12C` (as salt: chloride) [Compound 76, 2-(((3R,5R,8R,9S,10S,13S,14S)-10,13-Dimethyl-17-methylenehexadecahydro-1H-cyclopenta[a]phenanthren-3-yl)oxy)-N,N,N-trimethyl-2-oxoethan-1-ammonium chloride] gave a melting point of 175 to 177 °C.

In turn, `C=C(C)[C@H]1CC[C@H]2[C@@H]3CC[C@@H]4C[C@H](OC(=O)CCC(=O)O)CC[C@]4(C)[C@H]3CC[C@]12C` returned a melting point of 148 to 149.5 °C.

`C=C1C[C@H]2[C@@H]3CC[C@@H]4C[C@H](OC(=O)CCC(=O)O)CC[C@]4(C)[C@H]3CC[C@]2(C)C1` showed a melting point of 165 to 165.7 °C.

Compound `C[C@@]12CCC[C@H]1[C@@H]1CC[C@@H]3C[C@H](OC(=O)CCC[N+](C)(C)C)CC[C@]3(C)[C@H]1CC2` (as salt: chloride) [Compound 62, 4-(((3R,5R,8S,9S,10S,13S,14S)-10,13-Dimethylhexadecahydro-1H-cyclopenta[a]-phenanthren-3-yl)oxy)-N,N,N-trimethyl-4-oxobutan-1-ammonium chloride] had a melting point of 225 to 227 °C.

Regarding `C=C1C[C@H]2[C@@H]3CC[C@@H]4C[C@H](OS(=O)(=O)O)CC[C@]4(C)[C@H]3CC[C@]2(C)C1` (as salt: salt) [Compound 114, Pyridinium (3R,5R,8S,9S,10S,13R,14S)-10,13-dimethyl-16-methylenhexadekhydro-1H-cyclopenta[a]phenanthren-3-yl 3-sulfate], the melting point lay in the range of 180 to 182 °C.

As for `C[C@H]1CC[C@H]2[C@@H]3CC[C@@H]4C[C@H](OC(=O)CCC(=O)O)CC[C@]4(C)[C@H]3CC[C@]12C`, the melting point lay in the range of 141 to 142 °C.

Compound `C[C@@]12CCCCC1[C@@H]1CC[C@@H]3C[C@H](OC(=O)CCC(=O)O)CC[C@]3(C)[C@H]1CC2` (stereo partly drawn) [Compound 103, 4-(((2R,4aS,4bS,6aS,10bS,12aR)-4a,6a-Dimethyloctadecahydrochrysen-2-yl)oxy)-4-oxobutanoic acid] showed a melting point of 136 to 138 °C.

Compound `C[C@@H]1CC[C@H]2[C@@H](CC[C@@H]3C[C@H](OC(=O)CCC(=O)O)CC[C@@]32C)C1` [Compound 34, 4-(((2R,4aS,4bS,7R,8aS,10aR)-4a,7-Dimethyltetradecahydrophenanthren-2-yl)oxy)-4-oxobutanoic acid] registered a melting point of 119 to 121 °C. Also, the inhibition at 10 µM in series [1] (HEK293, steroid concentration 10 μmol·l^−1, 1 mmol·l^−1 glutamate, −60 mV, read-out: Mean % change ± SD) worked out at 27 ± 10%. Further, in series [1] (setting [4]), the 50% inhibitory concentration (IC50) is 23.2 µM.

The compound `C[C@@]12CCC[C@H]1[C@@H]1CC[C@@H]3C[C@H](OC(=O)[C@@H](N)CCCNC(=N)N)CC[C@]3(C)[C@H]1CC2.Cl.Cl` displayed a melting point of 238 to 240 °C.

With `C[C@@H]1CC[C@H]2[C@@H](CC[C@@H]3C[C@H](OS(=O)(=O)O)CC[C@@]32C)C1` (as salt: salt) [Compound 35, Pyridinium (2R,4aS,4bS,7R,8aS,10aR)-4a,7-dimethyltetradecahydrophenanthren-2-yl 2-sulfate], the melting point is 147 to 149 °C.
